Measured values taken from US20260262643A1, “HERBICIDAL BENZOXAZINES” (FMC CORPORATION, priority 2022, published 2026).

What was measured:
ryegrass, Italian [1] = assay: Test C preemergence; type: in vivo, Lolium multiflorum
Procedure, shortened: (§1)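 Pre: seeds in loam/sand, directed soil spray. Post: 1–2 leaf plants, 2–10 cm. Cmpd in non-phytotoxic solvent + surfactant. Greenhouse 10 d; visual rating vs untreated, 0 = none, 100 = complete control.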

pigweed, palmer [2] = assay: Test C preemergence; type: in vivo, Amaranthus palmeri
Procedure, shortened: as §1

foxtail, giant [3] = assay: Test C preemergence; type: in vivo, Setaria faberi
Procedure, shortened: as §1

corn [4] = assay: Test C postemergence; type: in vivo, Zea mays; conditions: 10 days, 0 to 100 scale (0 no effect, 100 complete control)
Procedure, shortened: as §1

kochia [5] = assay: Test C preemergence; type: in vivo, Bassia scoparia
Procedure, shortened: as §1

corn [6] = assay: Test C preemergence; type: in vivo, Zea mays
Procedure, shortened: as §1

oat, wild [7] = assay: Test C postemergence; type: in vivo, Avena fatua; conditions: 10 days, 0 to 100 scale (0 no effect, 100 complete control)
Procedure, shortened: as §1

kochia [8] = assay: Test C postemergence; type: in vivo, Bassia scoparia; conditions: 10 days, 0 to 100 scale (0 no effect, 100 complete control)
Procedure, shortened: as §1

horseweed = assay: Test C postemergence; type: in vivo, Erigeron canadensis; conditions: 10 days, 0 to 100 scale (0 no effect, 100 complete control)
Procedure, shortened: as §1

ducksalad = assay: Test D flooded paddy test; type: in vivo, Heteranthera limosa; conditions: 250 g ai/ha, applied to paddy water, visual rating after 13 to 14 days, scale 0 to 100 (0 no effect, 100 complete control)
Procedure, shortened: (§2)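 Compounds go straight into paddy water over 2-leaf plants in pots flooded to 3 cm. Greenhouse holding lasts 13 to 14 days. Injury is scored by eye against controls from 0 (none) to 100 (complete control).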

pigweed, palmer [9] = assay: Test C postemergence; type: in vivo, Amaranthus palmeri; conditions: 10 days, 0 to 100 scale (0 no effect, 100 complete control)
Procedure, shortened: as §1

galium = assay: Test C postemergence; type: in vivo, Galium aparine; conditions: 10 days, 0 to 100 scale (0 no effect, 100 complete control)
Procedure, shortened: as §1

wheat [10] = assay: Test C preemergence; type: in vivo, Triticum aestivum
Procedure, shortened: as §1

ragweed [11] = assay: Test C preemergence; type: in vivo, Ambrosia artemisiifolia
Procedure, shortened: as §1

barnyardgrass [12] = assay: Test C preemergence; type: in vivo, Echinochloa crusgalli
Procedure, shortened: as §1

barnyardgrass [13] = assay: Test D flooded paddy test; type: in vivo, Echinochloa crus-galli; conditions: 250 g ai/ha, applied to paddy water, visual rating after 13 to 14 days, scale 0 to 100 (0 no effect, 100 complete control)
Procedure, shortened: as §2

soybean [14] = assay: Test C postemergence; type: in vivo, Glycine max; conditions: 10 days, 0 to 100 scale (0 no effect, 100 complete control)
Procedure, shortened: as §1

rice = assay: Test D flooded paddy test; type: in vivo, Oryza sativa; conditions: 250 g ai/ha, applied to paddy water, visual rating after 13 to 14 days, scale 0 to 100 (0 no effect, 100 complete control)
Procedure, shortened: as §2

ragweed [15] = assay: Test C postemergence; type: in vivo, Ambrosia artemisiifolia; conditions: 10 days, 0 to 100 scale (0 no effect, 100 complete control)
Procedure, shortened: as §1

oat, wild [16] = assay: Test C preemergence; type: in vivo, Avena fatua
Procedure, shortened: as §1

soybean [17] = assay: Test C preemergence; type: in vivo, Glycine max
Procedure, shortened: as §1

wheat [18] = assay: Test C postemergence; type: in vivo, Triticum aestivum; conditions: 10 days, 0 to 100 scale (0 no effect, 100 complete control)
Procedure, shortened: as §1

sedge, umbrella = assay: Test D flooded paddy test; type: in vivo, Cyperus difformis; conditions: 250 g ai/ha, applied to paddy water, visual rating after 13 to 14 days, scale 0 to 100 (0 no effect, 100 complete control)
Procedure, shortened: as §2

ryegrass, Italian [19] = assay: Test C postemergence; type: in vivo, Lolium multiflorum; conditions: 10 days, 0 to 100 scale (0 no effect, 100 complete control)
Procedure, shortened: as §1

foxtail, giant [20] = assay: Test C postemergence; type: in vivo, Setaria faberi; conditions: 10 days, 0 to 100 scale (0 no effect, 100 complete control)
Procedure, shortened: as §1

barnyardgrass [21] = assay: Test C postemergence; type: in vivo, Echinochloa crusgalli; conditions: 10 days, 0 to 100 scale (0 no effect, 100 complete control)
Procedure, shortened: as §1

blackgrass [22] = assay: Test C postemergence; type: in vivo, Alopecurus myosuroides; conditions: 10 days, 0 to 100 scale (0 no effect, 100 complete control)
Procedure, shortened: as §1

blackgrass [23] = assay: Test C preemergence; type: in vivo, Alopecurus myosuroides
Procedure, shortened: as §1

[24] = 500 g ai/ha, preemergence, 0 to 100 scale (0 no effect, 100 complete control)
[25] = Preemergence, 125 g ai/ha, 0 to 100 scale, 0 no effect, 100 complete control

CC(C)c1ncn(-c2cc(C(=O)N3CC(C(F)(F)F)Oc4c(Cl)cccc43)ccn2)n1 (single isomer, unassigned) [Compound 331]
Ryegrass, Italian plant response rating (ryegrass, Italian [1]; [24]): 60
Plant response rating, Ryegrass, Italian (ryegrass, Italian [1]; [25]): 60
Pigweed, Palmer plant response rating (pigweed, palmer [2]; [24]): 100
Plant response rating, Pigweed, Palmer (pigweed, palmer [2]; [25]): 30
Foxtail, Giant plant response rating (foxtail, giant [3]; [24]): 60
Plant response rating, Foxtail, Giant (foxtail, giant [3]; [25]): 20
Plant response rating, Corn (corn [4]; 500 g ai/ha, postemergence): 40
Plant response rating, Corn (corn [4]; Postemergence, 125 g ai/ha): 10
Kochia plant response rating (kochia [5]; [24]): 20
Plant response rating, Kochia (kochia [5]; [25]): 0
Corn plant response rating (corn [6]; [24]): 0
Plant response rating, Corn (corn [6]; [25]): 0
Plant response rating, Oat, Wild (oat, wild [7]; 500 g ai/ha, postemergence): 0
Plant response rating, Oat, Wild (oat, wild [7]; Postemergence, 125 g ai/ha): 0
Plant response rating, Kochia (kochia [8]; 500 g ai/ha, postemergence): 70
Plant response rating, Kochia (kochia [8]; Postemergence, 125 g ai/ha): 40
Plant response rating, Horseweed (horseweed; 500 g ai/ha, postemergence): 0
Plant response rating, Horseweed (horseweed; Postemergence, 125 g ai/ha): 0
Plant response rating, Ducksalad (Flood) (ducksalad): 0
Plant response rating, Pigweed, Palmer (pigweed, palmer [9]; 500 g ai/ha, postemergence): 50
Plant response rating, Pigweed, Palmer (pigweed, palmer [9]; Postemergence, 125 g ai/ha): 20
Plant response rating, Galium (galium; 500 g ai/ha, postemergence): 50
Plant response rating, Galium (galium; Postemergence, 125 g ai/ha): 50
Wheat plant response rating (wheat [10]; [24]): 0
Plant response rating, Wheat (wheat [10]; [25]): 0
Ragweed plant response rating (ragweed [11]; [24]): 0
Plant response rating, Ragweed (ragweed [11]; [25]): 0
Barnyardgrass plant response rating (barnyardgrass [12]; [24]): 0
Plant response rating, Barnyardgrass (barnyardgrass [12]; [25]): 0
Plant response rating, Barnyardgrass (Flood) (barnyardgrass [13]): 0
Plant response rating, Soybean (soybean [14]; 500 g ai/ha, postemergence): 100
Plant response rating, Soybean (soybean [14]; Postemergence, 125 g ai/ha): 90
Plant response rating, Rice (Flood) (rice): 0
Plant response rating, Ragweed (ragweed [15]; 500 g ai/ha, postemergence): 0
Plant response rating, Ragweed (ragweed [15]; Postemergence, 125 g ai/ha): 0
Oat, Wild plant response rating (oat, wild [16]; [24]): 20
Plant response rating, Oat, Wild (oat, wild [16]; [25]): 0
Soybean plant response rating (soybean [17]; [24]): 0
Plant response rating, Soybean (soybean [17]; [25]): 0
Plant response rating, Wheat (wheat [18]; 500 g ai/ha, postemergence): 20
Plant response rating, Wheat (wheat [18]; Postemergence, 125 g ai/ha): 10
Plant response rating, Sedge, Umbrella (Flood) (sedge, umbrella): 0
Plant response rating, Ryegrass, Italian (ryegrass, Italian [19]; 500 g ai/ha, postemergence): 10
Plant response rating, Ryegrass, Italian (ryegrass, Italian [19]; Postemergence, 125 g ai/ha): 0
Plant response rating, Foxtail, Giant (foxtail, giant [20]; 500 g ai/ha, postemergence): 40
Plant response rating, Foxtail, Giant (foxtail, giant [20]; Postemergence, 125 g ai/ha): 30
Plant response rating, Barnyardgrass (barnyardgrass [21]; 500 g ai/ha, postemergence): 30
Plant response rating, Barnyardgrass (barnyardgrass [21]; Postemergence, 125 g ai/ha): 10
Plant response rating, Blackgrass (blackgrass [22]; 500 g ai/ha, postemergence): 20
Plant response rating, Blackgrass (blackgrass [22]; Postemergence, 125 g ai/ha): 0
Blackgrass plant response rating (blackgrass [23]; [24]): 70
Plant response rating, Blackgrass (blackgrass [23]; [25]): 20
